According to PubChem BioAssay AID1033 (Sanford-Burnham Center for Chemical Genomics, 2008):
Active and inactive are the calls of the source. The rule behind the calls is not given here.

Target: Chaperone protein DnaK (Escherichia coli (strain K12)) (UniProt P0A6Y8)
Assay: binders of DnaK substrate-binding domain, biophysical, NMR, chaperone (AID 1033)
Settings: Purified DnaK SBD, NMR ligand binding

Sequence of Chaperone protein DnaK (Escherichia coli (strain K12)) (P0A6Y8 whole entry, looked up, the tested form may be a part): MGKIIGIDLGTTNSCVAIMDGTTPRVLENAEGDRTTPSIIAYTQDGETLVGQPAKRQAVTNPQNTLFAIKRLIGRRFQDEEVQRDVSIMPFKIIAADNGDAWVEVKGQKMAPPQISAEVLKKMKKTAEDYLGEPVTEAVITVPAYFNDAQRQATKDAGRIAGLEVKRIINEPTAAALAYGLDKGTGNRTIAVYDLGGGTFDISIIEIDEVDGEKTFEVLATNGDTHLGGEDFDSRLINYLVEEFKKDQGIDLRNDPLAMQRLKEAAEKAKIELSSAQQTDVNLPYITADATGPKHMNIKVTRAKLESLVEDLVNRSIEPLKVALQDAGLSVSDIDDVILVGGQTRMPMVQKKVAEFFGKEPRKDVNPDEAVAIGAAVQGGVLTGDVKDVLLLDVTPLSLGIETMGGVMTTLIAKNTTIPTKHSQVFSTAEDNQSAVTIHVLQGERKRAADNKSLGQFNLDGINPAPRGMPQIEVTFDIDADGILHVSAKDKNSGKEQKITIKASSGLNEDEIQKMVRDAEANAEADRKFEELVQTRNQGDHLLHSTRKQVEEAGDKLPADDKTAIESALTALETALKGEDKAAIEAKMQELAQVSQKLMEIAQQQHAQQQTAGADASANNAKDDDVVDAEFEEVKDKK

Row | Compound | Kd
1 | O=C1CSC2=NCCCN12 | > 4 mM (inactive)
2 | O=C1NC(=O)C(C(=S)Nc2ccccc2)C(=O)N1 | > 4 mM (inactive)
3 | CCOC(=O)c1[nH]cnc1C(=O)OC(C)C | > 4 mM (inactive)
4 | CC(=O)Nc1ccc(S(=O)(=O)N2CCN=C2C)cc1 | > 4 mM (inactive)
5 | COc1cccc(/C=C2/SC(N)=NC2=O)c1 | > 4 mM (inactive)
6 | O=[N+]([O-])c1c[n+]([O-])n(-c2ccccc2)n1 | > 4 mM (inactive)
7 | OCc1csc(-c2ccccc2)n1 | > 4 mM (inactive)
8 | O=C1NC(=S)N/C1=C\c1ccccc1F | > 4 mM (inactive)
9 | CN=C1SC(CC(=O)Nc2ccc(O)cc2)C(=O)N1C (stereo not drawn) | > 4 mM (inactive)
10 | CP(C)(=O)c1cccc(C(=O)O)c1 | > 4 mM (inactive)
11 | NC(=O)Nc1cccc(C(F)(F)F)c1 | > 4 mM (inactive)
12 | Cc1ccc(/C=C2/NC(=S)NC2=O)s1 | > 4 mM (inactive)
13 | CN1C(=O)C2C=CC1C1C(=O)N(c3ccccc3)C(=O)C21 (stereo not drawn) | > 4 mM (inactive)
14 | NC(=O)CNC(=O)c1ccc2ccccc2n1 | > 4 mM (inactive)
15 | CCOC(=O)c1c(C)[nH]c2ccc(O)cc12 | > 4 mM (inactive)
16 | Cc1nc(-c2ccccc2)sc1CN | > 4 mM (inactive)
17 | CN1CCC2(CC1)CC1CC3C=CC1(CN2)O3 (stereo not drawn) | > 4 mM (inactive)
18 | COc1ccc(-c2c(O)c3c(OC)c4c(cc3oc2=O)OC(C)(C)CC4)cc1 | > 4 mM (inactive)
19 | O=C(Nc1ccc(Cl)cc1)N1CCCC1 | > 4 mM (inactive)
20 | Nc1ccc2c(c1)S(=O)(=O)C=C2 | > 4 mM (inactive)

Row | Compound | Kd
21 | C/C=C(\C)C(=O)O[C@@H]1c2c(ccc3ccc(=O)oc23)OC(C)(C)[C@@H]1OC(C)=O | > 4 mM (inactive)
22 | NCCNC(=S)Nc1ccccc1 | > 4 mM (inactive)
23 | C=C1CSc2nc(=O)c3c(C)c(C)sc3n21 | > 4 mM (inactive)
24 | Cc1nn(-c2ccccc2)nc1CN | > 4 mM (inactive)
25 | NC1C2CC3CC1CC(O)(C3)C2 (stereo not drawn) | > 4 mM (inactive)
26 | O=C(Nc1ccc(-c2nnco2)cc1)c1ccccc1 | > 4 mM (inactive)
27 | CNC(=S)NCCN1CCOCC1 | > 4 mM (inactive)
28 | Nc1ccccc1-n1cccn1 | > 4 mM (inactive)
29 | CC(=O)c1c(O)n(C)c(=S)n(C)c1=O | > 4 mM (inactive)
30 | CCNC(=S)N1CCCC(C(N)=O)C1 (stereo not drawn) | > 4 mM (inactive)
31 | Cc1[nH]c2ccccc2c1CN(C)C | > 4 mM (inactive)
32 | C=C(C)[C@H]1CC=C(C(=O)O)CC1 | > 4 mM (inactive)
33 | Nc1ccc(C2SCCS2)cc1 | > 4 mM (inactive)
34 | COC(=O)C1CCN(c2ccc(Cl)nn2)CC1 | > 4 mM (inactive)
35 | Cc1nnc(SCC(=O)N2CCc3ccccc32)s1 | > 4 mM (inactive)
36 | CC(=O)OC[C@@]1(O)C[C@@]23CCC4c5ccoc5CC[C@]4(C)C2CC[C@@H]1C3 (stereo partly drawn) | > 4 mM (inactive)
37 | O=c1[nH]c(O)c(C=NC2CC2)c(=O)[nH]1 | > 4 mM (inactive)
38 | O=C(/C=C/c1ccc(O)c(O)c1)O[C@@H]1C[C@](O)(C(=O)O)C[C@@H](O)[C@H]1O | > 4 mM (inactive)
39 | O=C1CSC(=Nc2ccc(Cl)cc2)N1 | > 4 mM (inactive)
40 | C=C1C2CC[C@@]3(C)[C@H](c4ccoc4)OC(=O)C[C@]13O[C@H]1CC(=O)C(C)(C)C(CC(=O)OC)C21C (stereo partly drawn) | > 4 mM (inactive)

Row | Compound | Kd
41 | O=C(/C=C/C=C/c1ccc2c(c1)OCO2)N1CCCCC1 | > 4 mM (inactive)
42 | c1ccc(-n2cnnc2)nc1 | > 4 mM (inactive)
43 | CCC(C)C(=O)c1c(O)c(C)c2oc3c(C)c(O)c(C(=O)C(C)CC)c(O)c3c2c1O (stereo not drawn) | > 4 mM (inactive)
44 | COc1ccc(-c2nnc(-c3ccc(N)cc3)o2)cc1 | > 4 mM (inactive)
45 | CC(=O)OC/C=C(\C)CC/C=C(\C)CC/C=C(\C)CC/C=C(\C)CC/C=C(\C)CC/C=C(\C)CC/C=C(\C)CC/C=C(\C)CCC=C(C)C | > 4 mM (inactive)
46 | COC(=O)c1cc(C)on1 | > 4 mM (inactive)
47 | Fc1ccc(N2CCNCC2)cc1 | > 4 mM (inactive)
48 | O=C1CCCC(=O)N1c1ccc(O)cc1 | > 4 mM (inactive)
49 | NC(=S)CN1CCCC1=O | > 4 mM (inactive)
50 | Cc1ccccc1CSc1nnc(C)n1N | > 4 mM (inactive)
51 | CC(=O)Nc1ccc2c(C)cc(=O)[nH]c2c1 | > 4 mM (inactive)
52 | COc1c2ccccc2nc2occc12 | > 4 mM (inactive)
53 | O=C1NC(=S)N/C1=C/c1ccc(O)c(Cl)c1 | > 4 mM (inactive)
54 | COc1c(O)cc2c(c1O)[C@H]1O[C@H](CO)[C@@H](O)[C@H](O)[C@@H]1OC2=O | > 4 mM (inactive)
55 | CC(=O)O[C@H]1CC[C@]2(C)C3CC[C@@]4(C)C(CC5O[C@@]6(CCC(C)CO6)[C@@H](C)C54)C3CC[C@@H]2C1 (stereo partly drawn) | > 4 mM (inactive)
56 | O=C1c2cccc3cc(S(=O)(=O)O)cc(c23)C(=O)N1O | > 4 mM (inactive)
57 | O=C(C1CCNCC1)N1CCCCCC1 | > 4 mM (inactive)
58 | COc1ccccc1NC(=O)c1ccc(C)s1 | > 4 mM (inactive)
